Results published in patent US11279728B2, “Broad spectrum viral inhibitor” (Albert Einstein College of Medicine, priority 2017, dated 2022).
“Also recorded” adds a separate entry of the source.

T1: Rattus norvegicus (residues 51-361) viperin (Rvip) (Rattus norvegicus, UniProt O70600)
T1 sequence (O70600 51-360 limits assumed): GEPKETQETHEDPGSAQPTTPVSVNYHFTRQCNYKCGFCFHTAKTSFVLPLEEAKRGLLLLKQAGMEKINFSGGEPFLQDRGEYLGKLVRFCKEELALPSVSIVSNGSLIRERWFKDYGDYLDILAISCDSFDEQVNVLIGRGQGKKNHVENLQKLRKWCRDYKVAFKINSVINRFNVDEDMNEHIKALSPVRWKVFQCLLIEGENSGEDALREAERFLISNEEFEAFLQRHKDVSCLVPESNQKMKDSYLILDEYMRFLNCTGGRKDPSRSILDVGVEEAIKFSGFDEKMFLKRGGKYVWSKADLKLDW

B1: Rattus norvegicus (residues 51-361) viperin (Rvip) (Rattus norvegicus) (protein)
chain: T1 sequence (O70600 51-360 limits assumed)

How the values were obtained:
poliovirus (PV) RdRp = poliovirus (PV) RdRp (Poliovirus type 1, UniProt P03300); assay type: biochemical
poliovirus (PV) RdRp, sequence (P03300 1749-2209 limits assumed): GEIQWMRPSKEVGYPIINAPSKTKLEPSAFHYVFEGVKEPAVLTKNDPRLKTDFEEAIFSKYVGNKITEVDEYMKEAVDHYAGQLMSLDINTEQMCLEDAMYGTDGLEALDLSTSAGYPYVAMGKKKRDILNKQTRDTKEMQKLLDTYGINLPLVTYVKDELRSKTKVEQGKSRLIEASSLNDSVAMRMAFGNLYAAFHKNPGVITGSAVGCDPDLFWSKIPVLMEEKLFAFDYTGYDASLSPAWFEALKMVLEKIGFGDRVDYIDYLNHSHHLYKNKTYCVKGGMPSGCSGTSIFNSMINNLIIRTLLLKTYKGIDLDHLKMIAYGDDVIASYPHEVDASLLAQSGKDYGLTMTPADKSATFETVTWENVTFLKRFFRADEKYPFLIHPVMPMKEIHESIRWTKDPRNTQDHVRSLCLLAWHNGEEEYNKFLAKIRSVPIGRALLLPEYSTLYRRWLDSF

Dengue virus (DV) RdRp = Dengue virus (DV) RdRp (Dengue virus type 2, UniProt P29990); assay: DV RdRp primed-template (primer extension) assay; assay type: biochemical; settings: for incorporation by DV RdRp on addition to the extended primer: direct incorporation, primed-template assay; for inhibition of DV RdRp-catalyzed production of full-length RNA: in competition with natural ribonucleotides, increasing concentrations (1, 10, 100 and 300 μM); for chain termination of DV RdRp-catalyzed RNA synthesis: once incorporated, only a 16-nt product (n+1)
Dengue virus (DV) RdRp, sequence (P29990 2492-3391 limits assumed): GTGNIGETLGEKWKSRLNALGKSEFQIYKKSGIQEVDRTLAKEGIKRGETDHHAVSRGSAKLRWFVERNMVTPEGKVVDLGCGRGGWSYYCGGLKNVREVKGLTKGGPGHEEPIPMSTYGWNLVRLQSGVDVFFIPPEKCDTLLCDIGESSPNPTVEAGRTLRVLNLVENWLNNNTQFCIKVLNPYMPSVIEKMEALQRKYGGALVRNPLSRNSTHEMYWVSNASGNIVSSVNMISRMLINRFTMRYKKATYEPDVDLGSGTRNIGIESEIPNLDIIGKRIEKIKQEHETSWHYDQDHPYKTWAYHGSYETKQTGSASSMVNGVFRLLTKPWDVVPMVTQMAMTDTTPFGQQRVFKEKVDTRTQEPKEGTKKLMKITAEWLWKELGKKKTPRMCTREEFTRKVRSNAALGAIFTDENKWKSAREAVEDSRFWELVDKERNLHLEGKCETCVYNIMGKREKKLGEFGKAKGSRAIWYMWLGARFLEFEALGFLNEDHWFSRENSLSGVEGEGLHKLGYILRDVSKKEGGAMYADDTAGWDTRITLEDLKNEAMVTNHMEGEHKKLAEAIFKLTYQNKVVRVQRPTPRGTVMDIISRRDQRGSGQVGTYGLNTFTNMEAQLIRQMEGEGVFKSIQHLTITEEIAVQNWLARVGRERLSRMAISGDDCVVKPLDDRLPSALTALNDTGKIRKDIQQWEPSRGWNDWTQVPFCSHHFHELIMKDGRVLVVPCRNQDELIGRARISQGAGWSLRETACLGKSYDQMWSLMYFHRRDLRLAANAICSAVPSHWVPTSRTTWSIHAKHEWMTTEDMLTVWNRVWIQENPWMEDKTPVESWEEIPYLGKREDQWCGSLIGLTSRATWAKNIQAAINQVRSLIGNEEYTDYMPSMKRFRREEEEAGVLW
Excerpt: FIG. 6(A)-6(B): DV RdRp-catalyzed RNA synthesis is inhibited by ddhCTP by a chain termination mechanism. A. Schematic of primer extension assay for evaluating DV RdRp activity. Elongation complexes are first assembled with a trinucleotide primer, 5′-pGGC (SEQ ID NO:1), and 20-nt RNA template (SEQ ID NO:2) in the presence of ATP and GTP to elongate the trinucleotide primer (extended primer; SEQ ID NO:3)) and position the enzyme on the template (SEQ ID NO:2) such that guanosine is in the first templating position (underlined). In the presence of CTP and UTP, DV RdRp catalyzes RNA synthesis to the end of the template (SEQ ID NO:5). […] B. Increasing concentrations of ddhCTP (1, 10, 100 and 300 μM) inhibits DV RdRp-catalyzed RNA synthesis. Reaction products resolved by denaturing PAGE from DV RdRp-catalyzed nucleoside incorporation in the presence of increasing concentrations of either ddhCTP or 3′-dCTP. In the absence of ddhCTP and 3′-dCTP, DV RdRp efficiently catalyzes RNA synthesis to the end of the template creating a 20-nt RNA product (n+5, lanes 2 and 8).
Molecular target for ddhCTP: Viperin is induced by both DNA and RNA viruses (8,44-51). However, the presence of a 2′-OH on ddhCTP should almost certainly preclude efficient utilization by DNA polymerases, viral or cellular. (52) In contrast, 3′-deoxyribonucleotides are well known inhibitors of viral RNA-dependent RNA polymerases (RdRps)(53). Because Dengue virus (DV) and other members of the Flavivirus family are known to be sensitive to viperin, we used the DV RdRp as our model to examine the effect of ddhCTP on RdRp activity. First, it was asked if ddhCTP is a substrate for DV RdRp. To do so, a previously described primed-template assay was used. (54) A trinucleotide is used to prime RNA synthesis in the presence of two ^32P-labeled rNTPs, producing a 15-nt product that is referred to here as the extended primer. […] Addition of UTP to the CMP-incorporated RNA led to further extension to the end of template. […] A more stringent test of chain terminator effectiveness is whether it can directly compete with natural ribonucleotides. […] The reduced efficacy of ddhCTP must be caused by the double bond between the 3′ and 4′ positions, and the corresponding impact on the detailed ribose conformation, as this is the only difference between ddhCTP and 3′-dCTP. The phylogeny of viral RdRp genes classifies these enzymes into three supergroups (55), with Flaviviral RdRps belonging to supergroup II. To determine if the observations with DV RdRp extend to other supergroups, we evaluated a member of supergroup I. Specifically, the RdRp from human rhinovirus type C (HRV-C) was used, a member of the Picornavirus family. […] However, in the presence of other rNTPs, HRV-C RdRp was not inhibited by ddhCTP, even though it was inhibited by 3′-dCTP.
Addition of UTP to the CMP-incorporated RNA, as expected, led to further extension to the end of template.

[1] = tested on: RdRp from human rhinovirus type C (HRV-C); assay: HRV-C RdRp incorporation and inhibition; assay type: biochemical; settings: for utilization by HRV-C RdRp: direct-incorporation experiments; for inhibition of HRV-C RdRp: in the presence of other rNTPs
Zika virus (ZIKV) RdRp = Zika virus (ZIKV) RdRp (Zika virus, UniProt Q32ZE1); assay: ZIKV RdRp inhibition by ddhCTP; assay type: biochemical
Zika virus (ZIKV) RdRp, sequence (Q32ZE1 2517-3419): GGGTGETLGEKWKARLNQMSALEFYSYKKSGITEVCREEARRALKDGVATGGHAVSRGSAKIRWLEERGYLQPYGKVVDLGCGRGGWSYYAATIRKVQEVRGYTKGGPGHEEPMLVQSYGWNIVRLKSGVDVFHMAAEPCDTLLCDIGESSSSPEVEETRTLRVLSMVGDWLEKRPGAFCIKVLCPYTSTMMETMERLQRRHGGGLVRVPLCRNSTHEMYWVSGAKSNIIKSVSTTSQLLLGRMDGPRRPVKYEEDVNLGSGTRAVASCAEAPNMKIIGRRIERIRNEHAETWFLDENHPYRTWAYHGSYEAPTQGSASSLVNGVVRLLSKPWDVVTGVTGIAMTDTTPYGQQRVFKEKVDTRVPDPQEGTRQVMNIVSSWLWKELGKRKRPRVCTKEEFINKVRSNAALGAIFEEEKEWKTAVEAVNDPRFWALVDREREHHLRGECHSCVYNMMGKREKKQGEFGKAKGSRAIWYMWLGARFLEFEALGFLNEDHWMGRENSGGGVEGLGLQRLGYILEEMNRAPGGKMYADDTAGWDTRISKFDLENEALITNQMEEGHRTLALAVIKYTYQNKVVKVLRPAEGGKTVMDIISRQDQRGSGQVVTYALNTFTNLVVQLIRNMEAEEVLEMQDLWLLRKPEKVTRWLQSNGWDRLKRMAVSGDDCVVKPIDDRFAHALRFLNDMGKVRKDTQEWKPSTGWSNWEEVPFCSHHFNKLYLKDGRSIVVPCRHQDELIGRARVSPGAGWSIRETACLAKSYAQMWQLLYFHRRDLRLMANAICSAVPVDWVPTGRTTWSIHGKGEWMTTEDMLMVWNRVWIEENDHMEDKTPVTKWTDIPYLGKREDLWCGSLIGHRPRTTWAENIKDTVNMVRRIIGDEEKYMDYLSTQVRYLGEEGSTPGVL

HCV RdRp = HCV RdRp (Hepatitis C virus genotype 1a, UniProt P27958); assay: HCV RdRp inhibition by ddhCTP
HCV RdRp, sequence (P27958 2421-3011): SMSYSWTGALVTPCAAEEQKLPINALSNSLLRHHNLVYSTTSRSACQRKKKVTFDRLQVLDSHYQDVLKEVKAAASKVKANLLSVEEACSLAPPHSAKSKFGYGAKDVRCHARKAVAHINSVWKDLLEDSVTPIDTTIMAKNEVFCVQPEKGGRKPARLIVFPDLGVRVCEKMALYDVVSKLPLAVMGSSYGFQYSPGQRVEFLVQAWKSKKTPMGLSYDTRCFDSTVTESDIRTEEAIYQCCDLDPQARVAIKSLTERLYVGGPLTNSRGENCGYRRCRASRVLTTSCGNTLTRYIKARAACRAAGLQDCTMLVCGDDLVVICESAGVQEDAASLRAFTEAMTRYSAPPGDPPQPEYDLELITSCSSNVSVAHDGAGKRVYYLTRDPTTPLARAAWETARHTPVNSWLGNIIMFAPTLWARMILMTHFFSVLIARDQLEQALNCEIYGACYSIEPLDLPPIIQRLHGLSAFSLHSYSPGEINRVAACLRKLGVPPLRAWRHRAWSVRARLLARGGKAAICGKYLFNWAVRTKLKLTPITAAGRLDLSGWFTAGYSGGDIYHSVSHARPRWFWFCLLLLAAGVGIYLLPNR

[2] = molecular target: T1, Rattus norvegicus (residues 51-361) viperin (Rvip); assay: In vitro characterization of viperin (Rvip) activity: 5′dA formation / ddhCTP production; settings: 50 μM Rvip, 2 mM SAM, 1 mM nucleotide, 5 mM dithionite, 4 min
Vero cells = assay: Vero cell viability (ddhC cytotoxicity); assay type: cell-based; settings: incubation with 1 mM ddhC
[3] = tested on: ZIKV (MR766, PRVABC59, R103451); assay: ZIKV replication and release from Vero cells
[4] = substrate: Nc1ccn([C@@H]2O[C@H](COP(=O)(O)OP(=O)(O)OP(=O)(O)O)[C@@H](O)[C@H]2O)c(=O)n1; assay: purified protein, by the assay type; settings: other: CTP as substrate of Rvip, 37.0 °C

Molecule | inhibition of PV RdRp (poliovirus (PV) RdRp) | incorporation by DV RdRp on addition to the extended primer (Dengue virus (DV) RdRp) | inhibition of DV RdRp-catalyzed production of full-length RNA (Dengue virus (DV) RdRp) | chain termination of DV RdRp-catalyzed RNA synthesis (Dengue virus (DV) RdRp) | utilization by HRV-C RdRp [1] | inhibition of HRV-C RdRp [1] | other results
Nc1ccn([C@@H]2OC(COP(=O)(O)OP(=O)(O)OP(=O)(O)O)=C[C@@H]2O)c(=O)n1 (stereo in doubt) [ddhCTP, 3′-deoxy-3′,4′-didehydro-cytidine triphosphate] | poorly inhibited | led to incorporation | inhibits; also recorded: inhibited production of full-length RNA | terminate RNA synthesis | utilization | not inhibited; also recorded: poorly inhibited | inhibition by ddhCTP utilization and chain termination (Zika virus (ZIKV) RdRp): susceptible to inhibition; inhibition by ddhCTP utilization and chain termination (HCV RdRp): susceptible to inhibition
Nc1ccn([C@@H]2O[C@H](COP(=O)(O)OP(=O)(O)OP(=O)(O)O)C[C@H]2O)c(=O)n1 [3′-dCTP, reference compound] | inhibited | led to incorporation | inhibited production of full-length RNA | terminate RNA synthesis | utilization | inhibited | efficacy of inhibition of full-length RNA, 3′-dCTP compared with ddhCTP (Dengue virus (DV) RdRp; compare lane 10 to lane 4 in FIG. 6B): greater efficacy than ddhCTP
Nc1ccn([C@@H]2O[C@H](COP(=O)(O)OP(=O)(O)OP(=O)(O)O)[C@@H](O)[C@H]2O)c(=O)n1 [CTP, cytidine triphosphate] | – | – | – | – | – | – | activation of 5′dA production relative to protein alone [2]: 30 fold
Nc1ccn([C@@H]2OC(CO)=C[C@H]2O)c(=O)n1 [ddhC, 3′-deoxy-3′,4′-didehydro-cytidine] | – | – | – | – | – | – | Vero cell viability (Vero cells): did not alter Vero cell viability; reduction in virus titer ([3]; ZIKV MR766, MOI of 0.1, all time points, Vero cells): 50-200 fold; reduction in virus titer ([3]; ZIKV MR766, MOI of 1.0, Vero cells): 5-50 fold; sensitivity to ddhC treatment ([3]; ZIKV PRVABC59 (Puerto Rico), Vero cells): analogous sensitivities; sensitivity to ddhC treatment ([3]; ZIKV R103451 (Honduras), Vero cells): analogous sensitivities
B1 | – | – | – | – | – | – | Km [4]: 183 ± 28 µM; kcat ([4]; b22 prints minutes-1): 0.00308 ± 0.00012 s⁻¹
